Data as given in patent US9073851B2, “Compositions and methods for treating cancer” (Board of Regents, The University of Texas System, priority 2011, dated 2015).

System: MDA-MB-231 tumors
Test: Orthotopic MDA-MB-231 xenograft breast cancer model
Format: in vivo, nude mice
Conditions: DOPC nanoliposomal, i.v., 5.8 mg/kg twice weekly (4 weeks)
Protocol: FIG. 3. New role for triptan derivatives targeting the 5-HT1B receptor as a therapeutic modality for breast cancer. (A). […] Treatments, twice per week (4 weeks) were safe and effective. Methods: Phospholipid dioleoylphosphatidylcholine (DOPC) and triptan 5-NT were mixed in tertiary butanol at a lipid:5-NT ratio of 10:1 (w/w). Tween 20 was added at a ratio of 1:20 ratio (w/w) and the mixture lyophilized overnight. The powder was reconstituted in saline and sonicated for one minute. The liposome formulation was injected (100 μl) into the tail vein. (B). 5-NT induces apoptotic cell death of ER(+) MCF-7 cells. (C). […] (D). […] (E). The 5-HT1B receptor is over-expressed in triple negative highly aggressive, and metastatic breast cancer cells as well as drug resistant (i.e. tamoxifen and doxorubicin) breast cancer cells. Methods: Blots were visualized with a FluorChem 8900 imager and quantified by a densitometer using the Alpha Imager application program.
For in vivo delivery siRNA was incorporated into dioleoyl-sn-glycero-3-phosphocholine (DOPC). DOPC and siRNA were mixed in the presence of excess tertiary butanol at a ratio of 1:10 (w/w) siRNA/DOPC [Shaw L M. Methods Mol Biol 2005: 294:97-105]. Before in vivo administration, this preparation was hydrated with normal 0.9% saline in 100 μL for i.v injection per mouse. […]

CCCCCCCCCOc1ccc2[nH]cc(CCN)c2c1 [5-NT, 5-nonylytryptamine]
tumor growth: significantly inhibits growth
